US9958439B2, “Carbohydrate detection” (RICHTER LIFE SCIENCE DEVELOPMENT AB, priority 2012, dated 2018)
Where two headings read alike, the source gives them in different places.

Columns and labels:
[1] = for RFU change (Correlation analysis) / RFU change (Signal deviation with increasing [Carbohydrate]) / λmax change: 3 μM probe; for RFU change (Correlation analysis): probe-specific excitation λ, emission 545 nm; for RFU change (Signal deviation with increasing [Carbohydrate]) / λmax change: spectral analysis, Excitation 300-500, Emission 545; for carbohydrate can be detected and/or differentiated by the LCO: conclusion from change in signal magnitude and/or shift in λmax; for Gradient Parameters (gradient of regression line) / Linear relationship / Quality of Gradient: linear regression
Protocol: (§1) The excitation spectrum of the probe was analyzed for wavelengths 300-500 nm with emission read at 545 nm.
(§2) 3 μM of each probe was applied to serial two fold dilutions of the insoluble carbohydrate. Respective probes were excited at wavelengths unique to each probe (specified in figure), and emission was read at 545 nm.
(§3) Serial dilutions of carbohydrate suspensions were prepared in dH2O. Concentrations ranging from 10 to 0.039 mg/ml was used for β-1,3-glucan, cellulose and chitin, whereas 5 to 0.019 mg/ml was used for sodium alginate, glucose, amylose, glycogen, cellulobiose, heparin, chondroitin sulfate A. 3 μM of each LCO probe was added to 1 ml aliquots of each concentration of carbohydrate, after which 100 μl was dispensed in triplicates into 96 well plates. Excitation spectra were collected by exciting the sample from 300 to 500 nm and detecting emission at 545 nm. Detection of carbohydrate is concluded when there is a reproducible change in λmax and/or RFU intensity with reference to the negative control. Data from three concentrations, as well as the negative control are shown for each carbohydrate as specified in respective figure.
(§4) The excitation wavelength (emission detected at 545 nm) selected for each LCO is either (1) the λmax, or (2) the excitation wavelength which suffers the lowest background. A linear regression analysis is performed to determine the relationship between the carbohydrate concentration and RFU.

[2] = Protocol: 3 μM of each probe was applied to serial two fold dilutions of the insoluble carbohydrate of which the concentration shown here are 5 mg/ml (_.), 2.5 mg/ml (. . . ), 1.25 mg/ml (__) and 0 mg/ml (_). The excitation spectrum of the probe was analyzed for wavelengths 300-500 nm with emission read at 545 nm.
as §2, §3, §4

[3] = remark: listed apart in the source
Protocol: (§5) 3 μM of each probe was applied to serial two fold dilutions of the carbohydrate of which the concentration shown here are 5 mg/ml (_.), 2.5 mg/ml (. . . ) 1.25 mg/ml (__) and 0 mg/ml (_). The excitation spectrum of the probe was analyzed for wavelengths 300-500 nm with emission read at 545 nm.
3 μM of each probe was applied to serial two fold dilutions of the carbohydrate. Respective probes were excited at wavelengths unique to each probe (specified in figure), and emission was read at 545 nm. […] The mean increase in signal (_) with [Glucose] and the fitted regression line (__) is shown.
as §3, §4

[4] = for RFU change (Correlation analysis): probe-specific excitation λ, emission 545 nm
Protocol: as §5
(§6) 3 μM of each probe was applied to serial two fold dilutions of the carbohydrate. Respective probes were excited at wavelengths unique to each probe (specified in figure), and emission was read at 545 nm.
as §3, §4

[5] = for RFU change (Correlation analysis): probe-specific excitation λ, emission 545 nm; for carbohydrate can be detected and/or differentiated by the LCO: conclusion from change in signal magnitude and/or shift in λmax; for Gradient Parameters (gradient of regression line) / Linear relationship / Quality of Gradient: linear regression
Protocol: 3 μM of each probe was applied to serial two fold dilutions of the carbohydrate of which the concentration shown here are 5 mg/ml (_.), 2.5 mg/ml (. . . ), 1.25 mg/ml (__) and 0 mg/ml (_). The excitation spectrum of the probe was analyzed for wavelengths 300-500 nm with emission read at 545 nm.
as §6, §3, §4

[6] = remark: listed apart in the source
Protocol: as §1, §6, §3, §4

[7] = β-1,3-glucan concentration vs RFU
[8] = Sodium alginate 5-0.019 mg/ml, 3 μM probe, spectral analysis, Excitation 300-500, Emission 545
[9] = sodium alginate concentration vs RFU, linear regression
[10] = glucose concentration vs RFU, linear regression
[11] = Cellulobiose 5-0.019 mg/ml, 3 μM probe, spectral analysis, Excitation 300-500, Emission 545
[12] = amylose concentration vs RFU, linear regression
[13] = cellulobiose concentration vs RFU, linear regression
[14] = Glycogen 5-0.019 mg/ml, 3 μM probe, spectral analysis, Excitation 300-500, Emission 545
[15] = Chondroitin Sulfate A 5-0.019 mg/ml, 3 μM probe, spectral analysis, Excitation 300-500, Emission 545
[16] = Chondroitin Sulfate A concentration vs RFU, linear regression

In the case of `Cl.Cl.c1csc(-c2cc(CCn3ccnc3)c(-c3ccc(-c4sc(-c5cccs5)cc4CCn4ccnc4)s3)s2)c1` [pHTIm, penta Hydrogen Thiophene Imidazole], the “RFU change (Correlation analysis)” value ([1]; Cellulose 10-[…]) is reported as “Increase”, the “RFU change (Signal deviation with increasing [Carbohydrate])” value ([1]; Cellulose 10-[…]) is reported as “Increase” and the λmax change ([1]; Cellulose 10-[…]) is reported as “Redshift”. The “carbohydrate can be detected and/or differentiated by the LCO” value ([1]; Cellulose) was “can be detected and/or differentiated”, the “RFU change (Correlation analysis)” value ([1]; Chitin 10-[…]) was “Decreases” and the “RFU change (Signal deviation with increasing [Carbohydrate])” value ([1]; Chitin 10-[…]) was “Decrease”. For the same compound, the λmax change ([1]; Chitin 10-[…]) was “Redshift”, the “carbohydrate can be detected and/or differentiated by the LCO” value ([1]; Chitin) was “can be detected and/or differentiated” and the “Gradient Parameters (gradient of regression line)” value (“Gradient Parameters” for short) ([1]; cellulose concentration vs RFU) was 3063 ± 564.3. The Linear relationship ([1]; cellulose concentration vs RFU) was “Significant”, the “Quality of Gradient” value ([1]; cellulose concentration vs RFU) was “Positive” and the “Gradient Parameters” value ([1]; chitin concentration vs RFU) was −383.6 ± 71.4. For the same compound, the Linear relationship ([1]; chitin concentration vs RFU) was “Significant”, the “Quality of Gradient” value ([1]; chitin concentration vs RFU) was “Negative” and the Sensitivity ([1]; to cellulose) was “Yes”. The Sensitivity ([1]; to chitin) was “Yes”, the Sensitivity ([1]; to β-1,3-glucan) was “No” and the “RFU change (Correlation analysis)” value ([1]; β-1,3-glucan 10-[…]) was “Decrease”. For the same compound, the “RFU change (Signal deviation with increasing [Carbohydrate])” value ([1]; β-1,3-glucan 10-[…]) was “Decrease”, the λmax change ([1]; β-1,3-glucan 10-[…]) was “Redshift” and the “Gradient Parameters” value [1, 7] was −177.1 ± 89.6. The “Quality of Gradient” value [1, 7] was “Horizontal”, the “RFU change (Correlation analysis)” value ([2]; Sodium alginate 5-0.019 mg/ml, 3 μM probe, probe-specific excitation λ, emission 545 nm) was “Increases” and the “RFU change (Signal deviation with increasing [Carbohydrate])” value [2, 8] was “Increases”. The λmax change [2, 8] was “Redshift”, the “carbohydrate can be detected and/or differentiated by the LCO” value ([2]; Sodium alginate, conclusion from change in signal magnitude and/or shift in λmax) was “can be detected and/or differentiated” and the “Gradient Parameters” value [2, 9] was 266 ± 29.2. The Linear relationship [2, 9] was “Significant”, the “Quality of Gradient” value [2, 9] was “Positive” and the Sensitivity ([2]; to sodium alginate) was “Yes”. For the same compound, the “RFU change (Correlation analysis)” value ([3]; Glucose 5-0.019 mg/ml, 3 μM probe, probe-specific excitation λ, emission 545 nm) was “Unclear”, the “RFU change (Signal deviation with increasing [Carbohydrate])” value ([3]; Glucose 5-0.019 mg/ml, 3 μM probe, spectral analysis, Excitation 300-500, Emission 545) was “Unclear” and the “Gradient Parameters” value [3, 10] was 10.9 ± 25.5. For the same compound, the “Quality of Gradient” value [3, 10] was “Horizontal”, the Sensitivity ([3]; to glucose) was “No” and the “RFU change (Correlation analysis)” value ([4]; Amylose 5-0.019 mg/ml, 3 μM probe) was “Decreases”. For the same compound, the “RFU change (Signal deviation with increasing [Carbohydrate])” value ([4]; Amylose 5-0.019 mg/ml, 3 μM probe, spectral analysis, Excitation 300-500, Emission 545) was “Decreases”, the “carbohydrate can be detected and/or differentiated by the LCO” value ([4]; Amylose, conclusion from change in signal magnitude and/or shift in λmax) was “can be detected and/or differentiated” and the “RFU change (Correlation analysis)” value ([4]; Cellulobiose 5-0.019 mg/ml, 3 μM probe) was “Unclear”. The “RFU change (Signal deviation with increasing [Carbohydrate])” value [4, 11] was “Increases”, the λmax change [4, 11] was “No change” and the “Gradient Parameters” value [4, 12] was −655 ± 110. The Linear relationship [4, 12] was “Significant”, the “Quality of Gradient” value [4, 12] was “Negative” and the “Gradient Parameters” value [4, 13] was 75.1 ± 61.5. The “Quality of Gradient” value [4, 13] was “Horizontal”, the Sensitivity ([4]; to amylose) was “Yes” and the Sensitivity ([4]; to cellulobiose) was “No”. The “RFU change (Correlation analysis)” value ([5]; Glycogen 5-0.019 mg/ml, 3 μM probe) was “Increases”, the “RFU change (Signal deviation with increasing [Carbohydrate])” value [5, 14] was “Increases” and the λmax change [5, 14] was “Redshift”. The “carbohydrate can be detected and/or differentiated by the LCO” value ([5]; Glycogen) was “can be detected and/or differentiated”, the “RFU change (Correlation analysis)” value ([5]; Heparin 5-0.019 mg/ml, 3 μM probe) was “Increases” and the “RFU change (Signal deviation with increasing [Carbohydrate])” value ([5]; Heparin 5-0.019 mg/ml, 3 μM probe, spectral analysis, Excitation 300-500, Emission 545) was “Unclear”. For the same compound, the “carbohydrate can be detected and/or differentiated by the LCO” value ([5]; Heparin) was “can be detected and/or differentiated”, the “Gradient Parameters” value ([5]; glycogen concentration vs RFU) was 835.8 ± 26.6 and the Linear relationship ([5]; glycogen concentration vs RFU) was “Significant”. For the same compound, the “Quality of Gradient” value ([5]; glycogen concentration vs RFU) was “Positive”, the “Gradient Parameters” value ([5]; heparin concentration vs RFU) was 96.3 ± 36.8 and the Linear relationship ([5]; heparin concentration vs RFU) was “Significant”. The “Quality of Gradient” value ([5]; heparin concentration vs RFU) was “Positive”, the Sensitivity ([5]; to glycogen) was “Yes” and the Sensitivity ([5]; to heparin) was “Yes”. For the same compound, the “RFU change (Correlation analysis)” value ([6]; Chondroitin Sulfate A 5-0.019 mg/ml, 3 μM probe, probe-specific excitation λ, emission 545 nm) was “Increases”, the “RFU change (Signal deviation with increasing [Carbohydrate])” value [6, 15] was “Increases” and the λmax change [6, 15] was “Redshift”. For the same compound, the “Gradient Parameters” value [6, 16] was 1177 ± 203.6, the Linear relationship [6, 16] was “Significant” and the “Quality of Gradient” value [6, 16] was “Positive”. For the same compound, the “carbohydrate can be detected and/or differentiated by the LCO” value ([6]; Chondroitin sulfate A, conclusion from change in signal magnitude and/or shift in λmax) was “can be detected and/or differentiated” and the Sensitivity ([6]; to Chondroitin Sulfate A) was “Yes”.
